Experimental data reported in patent publication US5514694A, “Peptidyl ketoamides” (Georgia Tech Research Corp, priority 1993, dated 1996).

Each molecule was assayed against T1, Calpain I from human erythrocytes (Homo sapiens, UniProt P07384) (assay: Calpain I inhibition, Suc-Leu-Tyr-AMC hydrolysis (KI)). Settings: Table 1, Z-Leu--AA--CONHR; read-out: KI Cal I.
T1 construct: Calpain I was purified from human erythrocytes; from tissue; host or cells: human erythrocytes
T1 sequence (P07384 1-714): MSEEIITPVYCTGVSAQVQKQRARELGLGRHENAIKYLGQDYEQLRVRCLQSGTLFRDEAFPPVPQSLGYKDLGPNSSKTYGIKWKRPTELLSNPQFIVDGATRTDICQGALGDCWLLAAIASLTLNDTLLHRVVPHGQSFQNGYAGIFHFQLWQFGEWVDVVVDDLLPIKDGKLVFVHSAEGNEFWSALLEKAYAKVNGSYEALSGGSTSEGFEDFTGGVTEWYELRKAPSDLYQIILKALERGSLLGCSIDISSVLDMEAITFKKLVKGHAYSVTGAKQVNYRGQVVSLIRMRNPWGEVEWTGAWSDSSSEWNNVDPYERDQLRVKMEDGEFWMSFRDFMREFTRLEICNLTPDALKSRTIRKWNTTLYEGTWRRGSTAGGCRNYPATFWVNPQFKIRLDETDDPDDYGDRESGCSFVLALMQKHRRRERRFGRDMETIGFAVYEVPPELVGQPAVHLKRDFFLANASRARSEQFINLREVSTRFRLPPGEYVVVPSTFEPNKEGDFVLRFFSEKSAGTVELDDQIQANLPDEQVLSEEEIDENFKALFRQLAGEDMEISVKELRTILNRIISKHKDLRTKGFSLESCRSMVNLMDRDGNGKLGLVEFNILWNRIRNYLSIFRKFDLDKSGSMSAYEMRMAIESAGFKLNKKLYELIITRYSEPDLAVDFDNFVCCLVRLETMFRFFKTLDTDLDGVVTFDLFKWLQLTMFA
T1 sequence (P04632 1-268 partner): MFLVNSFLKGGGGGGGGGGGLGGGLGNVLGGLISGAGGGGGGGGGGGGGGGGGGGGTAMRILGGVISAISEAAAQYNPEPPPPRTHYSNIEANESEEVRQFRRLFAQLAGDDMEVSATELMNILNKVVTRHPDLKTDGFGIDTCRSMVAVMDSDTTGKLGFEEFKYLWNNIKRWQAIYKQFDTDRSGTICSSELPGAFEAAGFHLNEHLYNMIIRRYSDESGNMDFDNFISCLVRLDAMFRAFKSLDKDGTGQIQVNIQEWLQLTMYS
Assay type: biochemical
Description: HEPES, heparin, and A23187 were obtained from Calbiochem. Suc-Leu-Tyr-AMC and chromogenic substrates were obtained from Sigma. Calpain I was purified from human erythrocytes according to the method of Kitahara (Kitahara et al., J. Biochem. 95, 1759-1766) omitting the Blue-Sepharose step. Calpain II from rabbit muscle and cathepsin B were purchased from Sigma. Papain was purchased from Calbiochem.
Peptide α-ketoamides were assayed as reversible enzyme inhibitors. Various concentrations of inhibitors in Me2 SO were added to the assay mixture which contained buffer and substrate. The reaction was started by the addition of the enzyme and the hydrolysis rates were followed spectrophotometrically or fluorimetrically.
Calpain I from human erythrocytes and calpain II from rabbit were assayed using Suc-Leu-Tyr-AMC Sasaki et al., J. Biol. Chem. 259, 12489-12494 (1984); incorporated herein by reference!, and the AMC (7-amino-4-methylcoumarin) release was followed fluorimetrically (excitation at 380 nm, and emmision at 460 nm). Calpains were assayed in 25 mM Tris pH=8.0, 10 mM CaC12. Fluorescence was followed using a Gilson FL-1A fluorometer or a Perkin-Elmer 203 Fluorescence spectrometer. Cathepsin B was assayed in 20 mM sodium acetate pH=5.2, 0.5 mM dithiothreitol using Bz-Phe-Val-Arg-p-nitroanilide as substrate. Alternately, cathepsin B was assayed with Z-Arg-Arg-AFC Barrett and Kirschke, Methods Enzymol. 80, 535-561 (1981); incorporated herein by reference!, and the AFC (7-amino-4-trifluoromethylcoumarin) release was followed fluorimetrically (excitation at 400 nm and emmision at 505 nm). Papain was assayed in 100 mM KPO4, 1 mM EDTA, 2.5 mM cysteine pH=6.0 using Bz-Arg-AMC or Bz-Arg-NA Kanaoka et al., Chem. Pharm. Bull. 25, 3126-3128 (1977); incorporated herein by reference! as a substrate. The AMC (7-amino-4-methylcoumarin) release was followed fluorimetrically (excitation at 380 nm, and emmision at 460 nm). Enzymatic hydrolysis rates were measured at various substrate and inhibitor concentrations, and KI values were determined by either Lineweaver-Burk plots or Dixon plots.
A 0.1M Hepes, 0.5M NaCl, pH 7.5 buffer was utilized for human leukocyte elastase (HLE), porcine pancreatic elastase (PPE), chymotrypsin and cathepsin G. A 0.1 Hepes, 0.01 M CaCl2, pH 7.5 buffer was utilized for trypsin, plasmin, and coagulation enzymes. A 50 mM Tris.HCl, 2 mM EDTA, 5 mM cysteine, pH 7.5 was used as a buffer for papain. A 88 mM KH2 PO4, 12 mM Na2 HPO4, 1.33 mM EDTA, 2.7 mM cysteine, pH 6.0 solution was used as a buffer for cathepsin B. A 20 mM Hepes, 10 mM CaCl2, 10 mM mercatoethanol, pH 7.2 buffer was utilized for calpain I and calpain II.
With `CCC(NC(=O)C(CC(C)C)NC(=O)OCc1ccccc1)C(=O)C(=O)NCCCN1CCCc2ccccc21` (stereo not drawn) [Z-Leu-Abu-CONH--(CH2)3 -1-Tetrahydroquinolinyl] the Ki was 0.37 µM.
`CCC(NC(=O)C(CC(C)C)NC(=O)OCc1ccccc1)C(=O)C(=O)NCc1nc(C)cs1` (stereo not drawn) [Z-Leu-Abu-CONH-CH2 -2-(4-methylthiazole), Z-Leu-Abu-CONH--CH2 -2-(4-Methyl-2-thiazolyl)] showed a Ki of 34 µM.
For `CCC(NC(=O)[C@H](CC(C)C)NC(=O)OCc1ccccc1)C(=O)C(=O)NCc1ccc2ccccc2n1` (stereo partly drawn) [Z-Leu-Abu-CONH-CH2 -2-quinolinyl, Z-Leu-Abu-CONH--CH2 -2-Quinolinyl], the Ki was 0.13 µM.
With `CCC(NC(=O)C(CC(C)C)NC(=O)OCc1ccccc1)C(=O)C(=O)NCc1ccc[n+]([O-])c1` (stereo not drawn) [Z-Leu-Abu-CONH-CH2 -3-pyridyl-N-oxide, Z-Leu-Abu-CONH--CH2 -3-Pyridyl-N-oxide] the Ki was 9.5 µM.
`CCC(NC(=O)C(CC(C)C)NC(=O)OCc1ccccc1)C(=O)C(=O)NCc1cc(=O)[nH]c(=O)[nH]1` (stereo not drawn) [Z-Leu-Abu-CONH-CH2 -6-uracil, Z-Leu-Abu-CONH--CH2 -6-Uracil] showed a Ki of 9 µM.
`CC(C)CC(NC(=O)OCc1ccccc1)C(=O)NC(Cc1ccccc1)C(=O)C(=O)NCCNC(=O)CCCCC1SCC2NC(=O)NC21` (stereo not drawn) [Z-Leu-Phe-CONH-(CH2)2 NH-biotinyl, Z-Leu-Phe-CONH--(CH2)2 NH-Biotinyl] gave a Ki of 0.22 µM.
Work on `CC(C)CC(NC(=O)OCc1ccccc1)C(=O)NC(Cc1ccccc1)C(=O)C(=O)NCCCN1CCCc2ccccc21` (stereo not drawn) [Z-Leu-Phe-CONH--(CH2)3-1-Tetrahydroquinolinyl] yielded a Ki of 0.38 µM.
With `CC(C)CC(NC(=O)OCc1ccccc1)C(=O)NC(Cc1ccccc1)C(=O)C(=O)NCCCN1CCc2ccccc2C1` (stereo not drawn) [Z-Leu-Phe-CONH--(CH2)3-2-Tetrahydroisoquinolinyl] the Ki was 0.22 µM.

Same assay, conditions: Table 2, Z-Leu--AA--CONH--CH2 CH(OH)-R; read-out: KI Cal I
`CCC(NC(=O)C(CC(C)C)NC(=O)OCc1ccccc1)C(=O)C(=O)NCC(O)c1cccc(Oc2ccc(Cl)c(Cl)c2)c1` (stereo not drawn) [Z-Leu-Abu-CONH--CH2 CH(OH)C6 H4 -3-OC6 H3 (3,4-Cl2)] showed a Ki of 0.27 µM.
`CCC(NC(=O)C(CC(C)C)NC(=O)OCc1ccccc1)C(=O)C(=O)NCC(O)c1cccc2ccccc12` (stereo not drawn) [Z-Leu-Abu-CONH-CH2 CH(OH)-1-C10 H7, Z-Leu-Abu-CONH--CH2 CH(OH)-1-C10 H7] was tested, and the Ki was 0.12 µM.
`CCC(NC(=O)C(CC(C)C)NC(=O)OCc1ccccc1)C(=O)C(=O)NCC(O)c1ccc2ccccc2c1` (stereo not drawn) [Z-Leu-Abu-CONH-CH2 CH(OH)-2-C10 H7, Z-Leu-Abu-CONH--CH2 CH(OH)-2-C10 H7] gave a Ki of 0.35 µM.
`CC(C)CC(NC(=O)OCc1ccccc1)C(=O)NC(Cc1ccccc1)C(=O)C(=O)NCC(O)c1cccc(Oc2ccc(Cl)c(Cl)c2)c1` (stereo not drawn) [Z-Leu-Phe-CONH--CH2 CH(OH)C6 H4 -3-OC6 H3 (3,4-Cl2)] was tested, and the Ki was 0.59 µM.
`CC(C)CC(NC(=O)OCc1ccccc1)C(=O)NC(Cc1ccccc1)C(=O)C(=O)NCC(O)c1c(F)c(F)c(F)c(F)c1F` (stereo not drawn) [Z-Leu-Phe-CONH-CH2 CH(OH)-C6 F5, Z-Leu-Phe-CONH--CH2 CH(OH)C6 F5] was tested, and the Ki was 0.7 µM.
Molecule `CC(C)CC(NC(=O)OCc1ccccc1)C(=O)NC(Cc1ccccc1)C(=O)C(=O)NCC(O)c1cccc(Oc2ccccc2)c1` (stereo not drawn) [Z-Leu-Phe-CONH-CH2 CH(OH)-C6 H4 (3-OPh), Z-Leu-Phe-CONH--CH2 CH(OH)C6 H4 (3-OPh)] has a Ki of 0.6 µM.
With “Z-Leu-Abu-CONH--CH2 CH(OH)C6 H2 (2,4,6-(OCH3)3)” the Ki was 0.38 µM.
In the case of “Z-Leu-Phe-CONH--CH2 CH(OH)C6 H4 (3-CF3) [Z-Leu-Phe-CONH-CH2 CH(OH)-C6 H4 (3-CF3)]”, the Ki is reported as 0.46 µM.

Same assay, conditions: Table 3, M1 CO-Leu--AA--CONH-R; read-out: KI Cal I
Molecule `CCNC(=O)C(=O)C(CC)NC(=O)C(CC(C)C)NC(=O)c1nccc2ccccc12` (stereo not drawn) [1-isoquinolinyl-CO-Leu-Abu-CONH-Et, 1-Isoquinolinyl-CO-Leu-Abu-CONHEt] has a Ki of 0.35 µM.
`CCNC(=O)C(=O)C(CC)NC(=O)C(CC(C)C)NC(=O)c1ccco1` (stereo not drawn) [2-furyl-CO-Leu-Abu-CONH-Et, 2-Furyl-CO-Leu-Abu-CONHEt] gave a Ki of 0.85 µM.
With `CCNC(=O)C(=O)C(CC)NC(=O)C(CC(C)C)NC(=O)c1cnccn1` (stereo not drawn) [2-pyrazinyl-CO-Leu-Abu-CONH-Et, 2-Pyrazinyl-CO-Leu-Abu-CONHEt] the Ki was 0.3 µM.
Work on `CCNC(=O)C(=O)C(CC)NC(=O)C(CC(C)C)NC(=O)C1CCCO1` (stereo not drawn) [2-tetrahydrofuryl-CO-Leu-Abu-CONH-Et, 2-Tetrahydrofuryl-CO-Leu-Abu-CONHEt] yielded a Ki of 18.5 µM.
With `CCNC(=O)C(=O)C(CC)NC(=O)C(CC(C)C)NC(=O)c1cccnc1` (stereo not drawn) [3-pyridyl-CO-Leu-Abu-CONH-Et, 3-Pyridyl-CO-Leu-Abu-CONHEt] the Ki was 1.3 µM.
`CCNC(=O)C(=O)C(CC)NC(=O)C(CC(C)C)NC(=O)N1CCOCC1` (stereo not drawn) [4-morpholinyl-CO-Leu-Abu-CONH-Et, 4-Morpholinyl-CO-Leu-Abu-CONHEt] gave a Ki of 7.9 µM.
`CCNC(=O)C(=O)[C@H](CC)NC(=O)[C@H](CC(C)C)NC(=O)CCC(=O)OC` [CH3 OCO(CH2)2-CO-Leu-Abu-CONH-Et, CH3 OCO(CH2)2 CO-Leu-Abu-CONHEt] showed a Ki of 3.8 µM.
`CCC(NC(=O)C(CC(C)C)NC(=O)C(c1ccccc1)c1ccccc1)C(=O)C(=O)NCC(O)c1ccccc1` (stereo not drawn) [Ph2 CH-CO-Leu-Abu-CONH-CH2 CH(OH)Ph, Ph2 CHCO-Leu-Abu-CONH--CH2 CH(OH)Ph] gave a Ki of 0.75 µM.
Molecule “Ph2 CHCO-Leu-Abu-CONHEt [Ph2 CH-CO-Leu-Abu-CONH-Et]” has a Ki of 5 µM.
